Data: US4568689A, “Pharmaceutical preparation for the treatment of hypertensive disease and myocardial infarction” (priority 1983, dated 1986)
Entries after “also recorded” stand apart in the source; their conditions may differ.

Assays:
[1] = test system: neoepinephrine model of infarction (focal necrosis) of myocardium in rats; experiment: survival of rats with the neoepinephrine model of infarction; format: in vivo, rats of the Wistar line; conditions: 25 mg/kg subcutaneously, 7 days; for Percentage of survival: after 19 days; for Number of survived animals after 19 days: groups initially 12 animals
Procedure: The study of the effect produced by the preparation according to the present invention on survival of animals with a neoepinephrine model of infarction was effected in comparison with the prior art preparations--obzidan and finoptin.
The formation of a neoepinephrine model of infarction (focal necrosis) of myocardium in rats was effected by way of an every-day subcutaneous administration of a 0.1% solution of neoepinephrine in the dose of 3 mg/kg for 7 days to rats of the Wistar line with a mass of 160-200 g. The test preparations were subcutaneously administered to the rats in the form of a 1.25% aqueous solution in the dose of 25 mg/kg 0.5 hour after injection of neoepinephrine also for 7 days.

[2] = test system: experimental necrosis of myocardium caused by introduction of adrenaline; experiment: histological analysis of experimental necrosis of myocardium caused by adrenaline; format: in vivo, rats of the Wistar line; conditions: for changes in cardiomyocytes / changes in interstitial tissue / changes in vessels: 25 mg/kg
Procedure: A comparative study of the effects produced by the preparation according to the present invention and finoptin on an experimental necrosis of myocardium caused by introduction of adrenaline.
The experiments were carried out on rats of the Wistar line of gregarious keeping, both sexes, with a mass of 170 to 225 g. Each preparation was studied on a separate group of animals: (group of adrenaline-control, group of finoptin, group of the preparation according to the present invention). 72 rats were used in the experiments altogether. Injuries of myocardium were caused by way of a single-time subcutaneous administration of a 0.1% solution of adrenaline hydrochloride in the dose of 3 mg per kg of the rat's bodyweight. […] The preparation of this invention was administered subcutaneously, finoptin-per os. On the first day of the experiment the preparations were administered 30 minutes after injection of adrenaline hydrochloride. The experiment lasted for 19 days. Slaughters were effected on the 4th, 8th, 12th and 19th day of the experiment. The animals were decapitated. The heart was fixed in a 10% solution of neutral formalin and sealed in paraffin. Serial sections with the thickness of 5-6μ were coloured by Ehrlich hematoxylin-eosin. The state of vessels of myocardium, cardiomyocytes and interstitial tissue were evaluated by histological analysis.

[3] = test system: arterial pressure of spontaneously hypertensive rats; experiment: effect of the oral form on arterial pressure, spontaneously hypertensive rats; format: in vivo; conditions: 10 mg/kg
[4] = background; cited from earlier work
[5] = test system: arterial pressure of rats with spontaneous hypertension; experiment: hypotensive effect, intraperitoneal, spontaneously hypertensive rats; format: in vivo
Procedure: The study of the hypotensive effect was carried out in experiments on spontaneously hypertensive male rats of the Akamoto-Aoki line aged 20-25 weeks. The prior art preparation-nifedipine was used for the purpose of comparison. The measurement of the arterial pressure was effected on the tail vein of the rats by the indirect method. The animals were divided into groups (10 in each) and trained for two weeks with the view to ensure their adaptation to the unit for the measurement of the arterial pressure. The level of the arterial pressure prior to administration of the test preparations was measured three times: two days, one day and directly prior to administration of the test preparations. The preparation was administered in the form of a 2.5% aqueous solution, nifedipine--in the form of a 2.5% suspension in Twin-80 intraperitoneally. […]

[6] = background; cited from earlier work; remark: listed apart in the source
[7] = 4th day, grade/number of animals (6)
[8] = 8th day, grade/number of animals (6)
[9] = 12th day, grade/number of animals (6)
[10] = 19th day, grade/number of animals (5)
[11] = 1 mg/kg intraperitoneally, 30 minutes
[12] = 1 mg/kg intraperitoneally, 1 hour
[13] = 1 mg/kg intraperitoneally, 2 hours
[14] = 1 mg/kg intraperitoneally, 4 hours
[15] = 1 mg/kg intraperitoneally, 24 hours

COc1ccc(CCN(C)CCCC(C#N)(c2ccc(OC)c(OC)c2)C(C)C)cc1OC (stereo not drawn) [Finoptin, reference compound]
Percentage of survival [1]: 50% | Number of survived animals after 19 days [1]: 6 | changes in cardiomyocytes ([2]; 4th day): Necrosis and eosinophilia, as well as contracture alterations of muscular cells are observed in a half of the studied animals | changes in interstitial tissue ([2]; 4th day): edema is decreased, in a half of the animals a diffusive round-cell infiltration is observed, the formation of granulomae is similar to that of the animals of the control group | changes in vessels ([2]; 4th day): injuries of the vascular system are less clearly pronounced as compared to adrenaline; non-uniform distribution of endothelium and infiltration of adventita of arteries with lymphoid cells are insignificant | necrobiotic regions in the wall [2, 7]: 0/6 | necrosis of more than 5 cells [2, 7]: 0/6 | wall necrosis (vessels) [2, 7]: 0/6 | changes in cardiomyocytes ([2]; 8th day): granular-lumpy decomposition, eosinophilia and contructure type pathology are more pronounced than in the group of animals administered with the preparation according to the present invention, but less pronounced as compared to the control group (adrenaline) | changes in interstitial tissue ([2]; 8th day): a more intensive growth of the scarring tissue is observed as compared to the group of animals administered with the preparation according to the present invention and an insignificant decrease as compared to the control group (adrenaline) | diffusive round-cell infiltration [2, 8]: 0/6 | edema (interstitial tissue) [2, 8]: 0/6 | necrobiotic regions in the wall [2, 8]: 0/6 | necrosis of more than 5 cells [2, 8]: 0/6 | nuclei (pyknosis) [2, 8]: 0/6 | plethora of the vessels [2, 8]: 0/6 | wall necrosis (vessels) [2, 8]: 0/6 | changes in cardiomyocytes ([2]; 12th day): Eosinophilia is retained and the contructure type changes are more clearly pronounced than in the group administered with the preparation according to the present invention | changes in interstitial tissue ([2]; 12th day): an intensive formation of the scarring tissue occurs more noticeably than in the group of animals administered with the preparation according to the present invention | changes in vessels ([2]; 12th day): certain changes are observed on the part of endothelial cells (swelling) | Nuclei (pykhnosis) [2, 9]: 0/6 | diffusive round-cell infiltration [2, 9]: 0/6 | edema (interstitial tissue) [2, 9]: 0/6 | infiltration of the adventitia with lymphoid cells [2, 9]: 0/5 | necrobiotic regions with changes in the vessel wall [2, 9]: 0/6 | necrosis of more than 5 cells [2, 9]: 0/6 | plethora of the vessels [2, 9]: 0/6 | wall necrosis (vessels) [2, 9]: 0/6 | changes in cardiomyocytes ([2]; 19th day): By the 19th day these changes are getting less noticeable; also recorded: In half of the animals a moderately pronounced granular-lumpy decomposition is retained along with eosinophilia, cell necroses and contructure type changes | changes in vessels ([2]; 19th day): no changes are detected on the part of the coronary vessels | infiltration of the adventitia with lymphoid cells [2, 10]: 0/5 | necrobiotic regions with changes in the vessel wall [2, 10]: 0/5 | necrosis of more than 5 cells [2, 10]: 0/5 | nuclei (pyknosis) [2, 10]: 0/5 | plethora of the vessels [2, 10]: 0/5

COC(=O)C1=C(C)NC(C)=C(C(=O)OC)C1c1ccccc1[N+](=O)[O-] [Nifedipine, reference compound]
Variation of arterial pressure, diastolic ([3]; 30 minutes): -14 % of the initial | Variation of arterial pressure, systolic ([3]; 30 minutes): -10 % of the initial | Variation of arterial pressure, diastolic ([3]; 1 hour): -18 % of the initial | Variation of arterial pressure, systolic ([3]; 1 hour): -14 % of the initial | Variation of arterial pressure, diastolic ([3]; 2 hours): -16 % of the initial | Variation of arterial pressure, systolic ([3]; 2 hours): -10 % of the initial | Variation of arterial pressure, diastolic ([3]; 4 hours): -20 % of the initial | Variation of arterial pressure, systolic ([3]; 4 hours): -18 % of the initial | Variation of arterial pressure, diastolic ([3]; 24 hours): 0 % of the initial | Variation of arterial pressure, systolic ([3]; 24 hours): 0 % of the initial | duration of effect [4]: ≤ 8 h | Variation of arterial pressure, diastolic [5, 11]: -8 % of the initial | Variation of arterial pressure, systolic [5, 11]: -4 % of the initial | lowering of diastolic pressure [5, 11]: 7.6% | lowering of systolic pressure [5, 11]: 4.3% | Variation of arterial pressure, diastolic [5, 12]: -14 % of the initial | Variation of arterial pressure, systolic [5, 12]: -11 % of the initial | Variation of arterial pressure, diastolic [5, 13]: -21 % of the initial | Variation of arterial pressure, systolic [5, 13]: -8 % of the initial | Variation of arterial pressure, diastolic [5, 14]: -31 % of the initial | Variation of arterial pressure, systolic [5, 14]: -11 % of the initial | Variation of arterial pressure, diastolic [5, 15]: 0 % of the initial | Variation of arterial pressure, systolic [5, 15]: 0 % of the initial | effect upon expiration of 8 hours ([5]; 8 hours): substantially discontinued

CC(C)NCC(O)COc1cccc2ccccc12 (stereo not drawn) [Obzidan]
Percentage of survival [1]: 50% | Number of survived animals after 19 days [1]: 6

CC(C)NCC(O)COc1cccc2ccccc12 (stereo not drawn) [inderal]
inotropic effect [6]: negative inotropic effect

C=CCOc1ccccc1OCC(O)CNC(C)C (stereo not drawn) [oxyprenolol]
inotropic effect [6]: negative inotropic effect
